A word on the Ki: it is a measure of affinity in units of concentration, obtained from inhibition or displacement. What is called IC50 is the point on the concentration scale where inhibition reaches its midpoint.

Experimental findings from ChEMBL document CHEMBL1137273, “Xanthine mimetics as potent dipeptidyl peptidase IV inhibitors” (Bioorg Med Chem Lett, 2006) are described below.

The target in one assay is T1, Prolyl endopeptidase (Homo sapiens, UniProt P48147).
T1 sequence (P48147 whole entry): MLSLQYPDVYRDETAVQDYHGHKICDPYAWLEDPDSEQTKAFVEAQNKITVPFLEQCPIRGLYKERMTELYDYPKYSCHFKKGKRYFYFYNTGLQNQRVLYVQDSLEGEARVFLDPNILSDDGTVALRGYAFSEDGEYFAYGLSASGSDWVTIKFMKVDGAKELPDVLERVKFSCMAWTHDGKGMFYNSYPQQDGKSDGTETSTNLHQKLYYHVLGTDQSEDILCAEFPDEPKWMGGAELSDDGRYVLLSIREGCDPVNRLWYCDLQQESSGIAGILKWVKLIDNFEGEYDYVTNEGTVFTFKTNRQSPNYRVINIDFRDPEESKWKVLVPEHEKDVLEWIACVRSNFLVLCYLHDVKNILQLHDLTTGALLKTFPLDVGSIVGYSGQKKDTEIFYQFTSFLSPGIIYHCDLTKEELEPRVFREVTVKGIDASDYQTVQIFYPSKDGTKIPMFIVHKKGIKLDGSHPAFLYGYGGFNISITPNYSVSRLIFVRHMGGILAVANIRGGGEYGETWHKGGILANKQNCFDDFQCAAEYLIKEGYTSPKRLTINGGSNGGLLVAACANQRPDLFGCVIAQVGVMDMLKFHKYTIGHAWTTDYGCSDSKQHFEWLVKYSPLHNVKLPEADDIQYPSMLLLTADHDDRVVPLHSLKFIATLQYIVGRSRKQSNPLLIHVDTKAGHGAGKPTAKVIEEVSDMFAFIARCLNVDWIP
Description: Inhibition of h-POP.

The next assay has as its target Dipeptidyl peptidase 9 (Homo sapiens, UniProt Q86TI2). Description: Inhibition of h-DPP9.
Assay [1] concerns the target T2, Dipeptidyl peptidase 4 (Homo sapiens, UniProt P27487). Description: Inhibition of h-DPPIV.
Assay [2] deals with T2, Dipeptidyl peptidase 4. Description: Human DPPIV plasma binding (0% plasma). The class given is cell-free.
In the next assay the target is Dipeptidyl peptidase 8 (Homo sapiens, UniProt Q6V1X1). Description: Inhibition of h-DPP8.
Dipeptidyl peptidase 8, sequence (Q6V1X1 whole entry): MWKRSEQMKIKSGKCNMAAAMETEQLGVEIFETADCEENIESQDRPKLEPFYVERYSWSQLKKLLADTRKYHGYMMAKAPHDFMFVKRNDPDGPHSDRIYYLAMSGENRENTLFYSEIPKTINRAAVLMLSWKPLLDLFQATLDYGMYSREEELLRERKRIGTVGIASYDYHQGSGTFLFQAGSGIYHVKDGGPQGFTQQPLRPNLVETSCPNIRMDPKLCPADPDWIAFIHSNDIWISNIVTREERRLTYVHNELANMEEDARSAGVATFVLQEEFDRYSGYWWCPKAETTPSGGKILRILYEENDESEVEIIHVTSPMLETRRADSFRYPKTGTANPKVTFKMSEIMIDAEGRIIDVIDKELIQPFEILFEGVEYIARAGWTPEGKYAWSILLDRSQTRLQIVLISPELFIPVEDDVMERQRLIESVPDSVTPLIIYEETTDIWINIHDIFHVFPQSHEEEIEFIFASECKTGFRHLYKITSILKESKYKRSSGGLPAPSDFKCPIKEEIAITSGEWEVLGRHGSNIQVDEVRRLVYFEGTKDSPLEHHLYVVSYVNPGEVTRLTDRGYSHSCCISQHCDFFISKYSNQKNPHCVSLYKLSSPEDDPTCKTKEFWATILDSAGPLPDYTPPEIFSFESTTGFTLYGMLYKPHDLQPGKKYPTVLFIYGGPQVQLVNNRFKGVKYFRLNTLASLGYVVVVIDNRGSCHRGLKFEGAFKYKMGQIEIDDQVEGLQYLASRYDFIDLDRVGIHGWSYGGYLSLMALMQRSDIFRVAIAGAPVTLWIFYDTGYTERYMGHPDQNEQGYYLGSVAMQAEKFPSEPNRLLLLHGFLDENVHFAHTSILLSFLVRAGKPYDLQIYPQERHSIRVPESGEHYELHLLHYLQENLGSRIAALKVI

T2 sequence (P27487 whole entry): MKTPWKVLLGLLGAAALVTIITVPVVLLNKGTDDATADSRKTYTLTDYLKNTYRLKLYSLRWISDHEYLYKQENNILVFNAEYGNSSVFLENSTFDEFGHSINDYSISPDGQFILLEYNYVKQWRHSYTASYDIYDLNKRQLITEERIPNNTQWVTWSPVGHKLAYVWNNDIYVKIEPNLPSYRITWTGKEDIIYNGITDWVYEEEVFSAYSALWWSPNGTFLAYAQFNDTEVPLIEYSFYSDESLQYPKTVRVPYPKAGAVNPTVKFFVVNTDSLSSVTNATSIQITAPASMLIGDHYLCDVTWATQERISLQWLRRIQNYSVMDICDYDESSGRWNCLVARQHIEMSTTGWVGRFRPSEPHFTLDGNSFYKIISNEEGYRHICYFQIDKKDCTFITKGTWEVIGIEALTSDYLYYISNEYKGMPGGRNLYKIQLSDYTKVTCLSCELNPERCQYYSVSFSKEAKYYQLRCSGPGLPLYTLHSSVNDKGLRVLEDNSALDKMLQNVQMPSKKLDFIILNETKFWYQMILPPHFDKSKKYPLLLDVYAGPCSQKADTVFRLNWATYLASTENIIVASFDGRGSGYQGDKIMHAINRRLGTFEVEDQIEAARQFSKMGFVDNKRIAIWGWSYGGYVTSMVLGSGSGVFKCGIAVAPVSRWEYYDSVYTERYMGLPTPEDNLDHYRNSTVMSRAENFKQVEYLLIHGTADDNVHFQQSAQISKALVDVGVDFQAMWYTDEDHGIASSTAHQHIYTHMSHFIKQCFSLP
Dipeptidyl peptidase 9, sequence (Q86TI2 whole entry): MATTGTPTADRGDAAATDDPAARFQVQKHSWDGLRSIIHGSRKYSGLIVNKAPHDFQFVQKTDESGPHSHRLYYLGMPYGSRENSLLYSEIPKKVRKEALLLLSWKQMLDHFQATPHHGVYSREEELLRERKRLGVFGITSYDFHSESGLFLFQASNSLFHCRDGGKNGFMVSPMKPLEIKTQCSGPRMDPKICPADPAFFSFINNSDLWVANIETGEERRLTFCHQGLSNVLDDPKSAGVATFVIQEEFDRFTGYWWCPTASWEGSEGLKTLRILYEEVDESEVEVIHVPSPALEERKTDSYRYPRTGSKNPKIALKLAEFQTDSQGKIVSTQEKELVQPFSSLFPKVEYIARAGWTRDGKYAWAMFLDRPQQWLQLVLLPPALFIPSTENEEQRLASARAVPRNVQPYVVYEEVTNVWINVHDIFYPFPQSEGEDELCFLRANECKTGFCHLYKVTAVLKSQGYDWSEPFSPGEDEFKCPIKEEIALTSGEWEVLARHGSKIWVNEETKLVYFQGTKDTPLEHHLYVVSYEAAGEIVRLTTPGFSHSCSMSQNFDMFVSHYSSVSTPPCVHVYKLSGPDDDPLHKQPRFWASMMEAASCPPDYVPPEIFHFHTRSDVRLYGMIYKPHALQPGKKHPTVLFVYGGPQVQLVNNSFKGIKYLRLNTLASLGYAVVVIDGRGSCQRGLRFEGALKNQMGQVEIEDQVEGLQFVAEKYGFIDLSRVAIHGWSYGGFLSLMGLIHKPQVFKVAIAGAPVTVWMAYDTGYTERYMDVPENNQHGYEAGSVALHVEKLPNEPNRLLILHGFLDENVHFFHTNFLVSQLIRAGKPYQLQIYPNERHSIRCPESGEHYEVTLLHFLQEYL

Consider `CN1C(=O)c2nc(N3CCCC(N)C3)n(Cc3ccccc3C#N)c2C1=O` (stereo not drawn), for which the Ki at Prolyl endopeptidase is more than 30 µM; on Dipeptidyl peptidase 9, more than 3 µM.

As for `Cn1c(=O)c2c(nc(N3CCCC(N)C3)n2Cc2ccccc2C#N)n(C)c1=O` (stereo not drawn), the Ki on Dipeptidyl peptidase 4 [1] was 2 nM; on Dipeptidyl peptidase 4 [2] it was 2 nM; on Prolyl endopeptidase, more than 30 µM; at Dipeptidyl peptidase 8 it was more than 30 µM.

`Cn1c(=O)c2nc(N3CCCC(N)C3)n(Cc3ccccc3C#N)c2c(=O)n1C` (stereo not drawn) gave an inhibition constant Ki at Prolyl endopeptidase of more than 30 µM.

As to `Cn1ncc2c(nc(N3CCCC(N)C3)n2Cc2ccccc2C#N)c1=O` (stereo not drawn), the inhibition constant (Ki) on Dipeptidyl peptidase 4 [1] came out at 260 nM.

In turn, `CN1C(=O)C=C(N2CCC[C@@H](N)C2)C(Cc2ccccc2C#N)C1=O` (stereo partly drawn) had a half-inhibitory concentration (IC50) on Dipeptidyl peptidase 4 [1] of 4 nM.

On to `Cn1ncc2nc(N3CCCC(N)C3)n(Cc3cccc(CC#N)c3)c2c1=O` (stereo not drawn), for which the Ki on Dipeptidyl peptidase 4 [1] is 11 nM; at Prolyl endopeptidase, more than 30 µM; at Dipeptidyl peptidase 8, more than 3 µM.

With `Cn1ncc2nc(N3CCCC(N)C3)n(Cc3ccccc3C#N)c2c1=O` (stereo not drawn), the inhibition constant (Ki) was 5 nM on Dipeptidyl peptidase 4 [1], more than 30 µM on Prolyl endopeptidase and more than 3 µM at Dipeptidyl peptidase 8.

Consider `NC1CCCN(c2nc3c(n2Cc2ccccc2C(F)(F)F)C(=O)c2ccccc2C3=O)C1` (stereo not drawn), for which the inhibition constant (Ki) on Dipeptidyl peptidase 4 [1] was 25 nM; at Dipeptidyl peptidase 8, more than 30 µM; on Dipeptidyl peptidase 9, more than 3 µM.
